Data from paper PMC12138715, “Exploring Boswellia serrata Triterpenes: A New Frontier in Leukemia Inhibitory Factor Receptor Modulation” (ACS Omega, 2025).

What was measured:
[1] = biological target: T1, leukemia inhibitory factor receptor (LIFR) (Homo sapiens, UniProt P42702); assay: biochemical; set-up: Alpha Screen inhibition of biotinylated LIF binding to His-tagged human LIFR; settings: LIF/LIFR binding
T1 construct: Recombinant human LIFR (His-Tag)
Protocol: Amplified Luminescent Proximity Homogeneous Assay on LIF-LIFR Recombinant human LIFR (His-Tag) and LIF (biotinylated) were purchased from Sino Biologicals (Sino Biological Europe GmbH, Dusseldorf, Germany) and R&D Systems (Abingdon, UK), respectively, and both were reconstituted as required by the manufacturer. Inhibition of LIFR/LIF binding was measured by Alpha Screen, in white, low-volume, 384-well AlphaPlates (Revvity, Italy) using a final volume of 15 μL and an assay buffer containing 25 mM Hepes (pH 7.4), 100 mM NaCl, and 0.005% Kathon. The concentration of DMSO in each well was maintained at 5% vol/vol. LIFR (His-Tag, final concentration 4.5 nM) was incubated with either the compounds or DMSO for 45 min under continuous shaking. Then, LIF was added (biotinylated, final concentration 9 nM), and the samples were incubated for 15 min prior to adding nickel chelate acceptor beads (final concentration 20 ng/μL) for 30 min. Then, streptavidin donor beads were added (final concentration 20 ng/μL), and the plate was incubated in the dark for 2 h and then read in a Victor Nivo (Revvity, Italy) Multimode Microplate Reader.

[2] = test system: leukemia inhibitory factor receptor (LIFR); assay: cells; set-up: LIFR/STAT3 luciferase reporter transactivation, LIF 10 ng/mL stimulated, Renilla normalized; settings: Homo sapiens, HepG2, 24 h; LIF 10 ng/mL stimulated; read-out: Transactivation Inhibition (%), 50 µM
Protocol: Luciferase Reporter Gene Assay To evaluate the LIFR/STAT3 signaling, HepG2 (HB, 8065 from ATCC), were seeded at 7.5 × 10^4 cells/well in a 24-well plate and maintained at 37 °C and 5% CO2 in E-MEM added with 10% FBS, 1% glutamine, and 1% penicillin/streptomycin. On day-1, cells were transiently transfected with the reporter plasmid pGL4.47[luc2P/SIE/Hygro] (CAT no. E4041 Promega, Madison, WI, USA), a vector encoding the hLIFR (CAT no. RC226327) and CD130 (IL6ST) (CAT no. RC215123, OriGene Technologies, Inc. Rockville, MD USA), and finally a vector encoding the human Renilla luciferase gene (pGL4.70) (Promega, Madison, WI, USA). On day-2, cells were primed with the cytokine LIF (10 ng/mL) alone or in combination with different compounds at the concentrations of 10 μM and 50 μM. Then, after 24 h, cellular lysate was assayed for luciferase and Renilla activities using the Firefly & Renilla Luciferase Single TubeAssay Kit (Biotium, Fremont, CA). Luminescence was measured using Glomax 20/20 luminometer (Promega, Madison, WI, USA). Luciferase activities were normalized with Renilla activities.

[3] = biological target: T1, leukemia inhibitory factor receptor (LIFR); assay: cell-free AlphaScreen LIF/LIFR binding inhibition
[4] = biological target: T1, leukemia inhibitory factor receptor (LIFR); assay: cell-free AlphaScreen LIF/LIFR binding inhibition; LIFR transactivation in HepG2

T1 sequence (P42702 45-1097): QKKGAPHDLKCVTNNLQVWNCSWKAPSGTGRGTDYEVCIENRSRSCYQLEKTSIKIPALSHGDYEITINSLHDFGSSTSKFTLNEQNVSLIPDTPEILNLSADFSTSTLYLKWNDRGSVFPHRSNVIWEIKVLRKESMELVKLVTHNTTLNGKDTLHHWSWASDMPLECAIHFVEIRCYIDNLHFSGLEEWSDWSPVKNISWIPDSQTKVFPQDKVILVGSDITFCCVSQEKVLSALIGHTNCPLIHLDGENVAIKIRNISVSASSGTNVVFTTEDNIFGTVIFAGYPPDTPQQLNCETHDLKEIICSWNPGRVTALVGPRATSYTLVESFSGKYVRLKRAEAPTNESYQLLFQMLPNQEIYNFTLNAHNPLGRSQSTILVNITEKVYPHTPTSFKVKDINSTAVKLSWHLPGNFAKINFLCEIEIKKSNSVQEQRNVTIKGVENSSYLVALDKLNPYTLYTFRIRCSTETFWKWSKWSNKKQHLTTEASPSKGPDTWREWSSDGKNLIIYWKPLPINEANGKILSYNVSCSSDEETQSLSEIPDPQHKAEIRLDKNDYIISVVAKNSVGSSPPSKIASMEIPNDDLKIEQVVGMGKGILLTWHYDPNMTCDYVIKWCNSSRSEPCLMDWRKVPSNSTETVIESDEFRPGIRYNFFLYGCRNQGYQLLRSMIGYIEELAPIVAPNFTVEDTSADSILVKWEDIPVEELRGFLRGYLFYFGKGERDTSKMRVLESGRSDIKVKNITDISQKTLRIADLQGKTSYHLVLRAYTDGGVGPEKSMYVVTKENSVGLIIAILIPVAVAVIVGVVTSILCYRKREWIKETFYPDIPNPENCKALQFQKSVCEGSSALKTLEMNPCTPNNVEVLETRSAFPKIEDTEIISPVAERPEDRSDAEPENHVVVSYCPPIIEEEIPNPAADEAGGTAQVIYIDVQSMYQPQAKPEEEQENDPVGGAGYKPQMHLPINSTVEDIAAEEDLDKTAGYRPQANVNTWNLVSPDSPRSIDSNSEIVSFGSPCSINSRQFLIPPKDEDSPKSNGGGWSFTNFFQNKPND
T1 sequence (P15018 23-202 partner): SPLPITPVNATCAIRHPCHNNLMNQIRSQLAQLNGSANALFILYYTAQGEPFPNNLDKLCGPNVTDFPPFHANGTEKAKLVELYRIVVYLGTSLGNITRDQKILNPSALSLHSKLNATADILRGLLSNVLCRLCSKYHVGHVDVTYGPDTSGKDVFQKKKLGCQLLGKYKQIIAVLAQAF

| inhibition at 10 µM [1] [%] | inhibition at 50 µM [1] [%] | SMILES | inhibition at 50 µM [2] [%] | other results |
| --- | --- | --- | --- | --- |
| 45.4 | 67.7 | CC1(C)CCC2(C)CCC3(C)C(=CCC4C5(C)CCC(O)C(C)(C(=O)NCCS(=O)(=O)O)C5CCC43C)C2C1 (stereo not shown) [compound 21, 21] | 68.8 | – |
| – | – | CC(C)=CCC[C@H](C(=O)O)[C@@H]1CC[C@]2(C)C3=C(CC[C@@]12C)[C@@]1(C)CCC(=O)C(C)(C)[C@@H]1CC3 [compound 17, 3-Oxotirucalla-8,24-dien-21-oic Acid] | – | IC50 [3]: < 10 µM |
| 51.3 | 83.7 | CC1(C)CCC2(C)CCC3(C)C(=CCC4C5(C)CCC(O)C(C)(C(=O)NCC(=O)O)C5CCC43C)C2C1 (stereo not shown) [compound 22, 22] | 58.3 | – |
| – | – | CC(C)=CCC[C@H](C(=O)O)[C@@H]1CC[C@]2(C)C3=C(CC[C@@]12C)[C@@]1(C)CC[C@@H](O)C(C)(C)[C@@H]1CC3 [compound 15, 3α-Hydroxytirucalla-8,24-dien-21-oic Acid] | – | IC50 [3]: < 10 µM |
| 48.7 | 86.9 | CC1CCC2(C)CCC3(C)C(=CCC4C5(C)CCC(O)C(C)(C(=O)NCC(=O)O)C5CCC43C)C2C1C (stereo not shown) [compound 24, 24] | 74.8 | – |
| – | – | CC(=O)O[C@@H]1CC[C@@]2(C)[C@@H](CC[C@]3(C)[C@@H]2CC=C2[C@@H]4CC(C)(C)CC[C@]4(C)CC[C@]23C)[C@@]1(C)C(=O)O [compound 3, (4R)-3α-Acetylolean-12-en-24-oic Acid] | – | IC50 ([3]; read-out: IC50): < 10 µM |
| – | – | CC(=O)O[C@@H]1CC[C@@]2(C)[C@@H](CC[C@]3(C)[C@@H]2CC=C2[C@@H]4[C@@H](C)[C@H](C)CC[C@]4(C)CC[C@]23C)[C@@]1(C)C(=O)O [compound 4, (4R)-3α-Acetylurs-12-en-24-oic Acid] | – | IC50 ([3]; read-out: IC50): < 10 µM |
| – | – | C[C@H]1[C@H](C)CC[C@]2(C)CC[C@]3(C)C(=CC[C@@H]4[C@@]5(C)CC[C@@H](O)[C@](C)(C(=O)O)[C@@H]5CC[C@]43C)[C@H]12 [compound 2, (4R)-3α-Hydroxyurs-12-en-24-oic Acid] | – | IC50 [4]: < 10 µM |
| – | – | CC(C)=CCC[C@H](C(=O)O)[C@@H]1CC[C@]2(C)C3=C(CC[C@@]12C)[C@@]1(C)CC[C@H](O)C(C)(C)[C@@H]1CC3 [compound 16, 3β-Hydroxytirucalla-8,24-dien-21-oic Acid] | – | IC50 [3]: < 10 µM |
| 52.9 | 88.5 | CC1CCC2(C)CCC3(C)C(=CCC4C5(C)CCC(O)C(C)(C(=O)NCCS(=O)(=O)O)C5CCC43C)C2C1C (stereo not shown) [compound 23, 23] | 70.2 | – |
| – | – | CC1(C)CC[C@]2(C)CC[C@]3(C)C(=CC[C@@H]4[C@@]5(C)CC[C@@H](O)[C@](C)(C(=O)O)[C@@H]5CC[C@]43C)[C@@H]2C1 [compound 1, (4R)-3α-Hydroxyolean-12-en-24-oic Acid] | – | IC50 [4]: < 10 µM |
